The subject of assay [1] is U-118-MG. The assay is described as follows: Induction of PDK4 protein expression in human U118MG cells at 2 uM after 48 hrs by Western blot analysis. Type of assay: functional, cell-based. For orientation: A western blot detects proteins with antibodies after separation by electrophoresis.
Assay [2] has as its system U-118-MG. In words: Induction of apoptosis in human U118MG cells transfected with lentivirus expressing shPKM2 assessed as early apoptotic cells after 48 hrs by Annexin-V-FITC/PI-staining based flow cytometric analysis (reference value: 2%). Type of assay: functional. In general terms: Flow cytometry measures light scatter and fluorescence of single cells or particles in a stream.

Assay [3] has as its target T1, Pyruvate kinase PKM (Homo sapiens, UniProt P14618). In words: Activation of PKM2 in human U87 cells assessed as reduction in bcl-xl expression at 1 to 2 uM after 48 hrs by Western blot analysis. Type of assay: cell-based. The following applies: U-87MG ATCC.
Another assay deals with HepG2. The assay is described as follows: Antiproliferative activity against human HepG2 cells assessed as reduction in cell viability after 72 hrs by MTT assay. Type of assay: functional, cell-based. To be noted: HepG2, 72 h. A general note: Formazan colour is commonly taken as a measure of viable cells.
Another assay has as its system U-87MG ATCC. In words: Effect on IKK-beta protein expression in human U87 cells at 0.2 to 0.5 uM after 48 hrs by Western blot analysis. The format is functional, cell-based.
The subject of assay [4] is U-118-MG. The assay is described as follows: Induction of apoptosis in human U118MG cells transfected with lentivirus expressing shPKM2 assessed as late apoptotic cells after 48 hrs by Annexin-V-FITC/PI-staining based flow cytometric analysis (reference value: 0.221%). The format is functional.
Assay [5] deals with T2, Inhibitor of nuclear factor kappa-B kinase subunit beta (Homo sapiens) (UniProt O14920).
T2 sequence (whole entry): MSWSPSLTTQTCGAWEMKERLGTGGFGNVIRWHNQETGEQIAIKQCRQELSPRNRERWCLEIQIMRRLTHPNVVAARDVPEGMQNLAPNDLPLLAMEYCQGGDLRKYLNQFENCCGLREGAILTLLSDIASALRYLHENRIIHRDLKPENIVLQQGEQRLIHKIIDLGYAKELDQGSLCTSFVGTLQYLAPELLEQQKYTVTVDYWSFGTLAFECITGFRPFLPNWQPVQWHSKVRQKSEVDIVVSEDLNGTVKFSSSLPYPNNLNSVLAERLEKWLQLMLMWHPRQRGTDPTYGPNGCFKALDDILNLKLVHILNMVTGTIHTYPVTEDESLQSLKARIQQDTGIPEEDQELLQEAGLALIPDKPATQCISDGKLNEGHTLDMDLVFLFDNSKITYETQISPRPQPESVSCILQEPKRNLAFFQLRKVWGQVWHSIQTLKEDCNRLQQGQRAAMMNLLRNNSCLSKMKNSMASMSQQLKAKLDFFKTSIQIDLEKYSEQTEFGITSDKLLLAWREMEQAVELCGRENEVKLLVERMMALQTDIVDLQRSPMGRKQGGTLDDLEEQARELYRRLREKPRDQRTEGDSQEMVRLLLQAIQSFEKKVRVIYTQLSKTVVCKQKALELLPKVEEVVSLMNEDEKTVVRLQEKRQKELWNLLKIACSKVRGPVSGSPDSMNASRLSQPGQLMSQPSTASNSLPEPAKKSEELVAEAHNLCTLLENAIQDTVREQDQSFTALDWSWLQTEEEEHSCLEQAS
The assay is described as follows: Effect on IKKbeta phosphorylation in human U118MG cells at 0.2 to 0.5 uM after 48 hrs by Western blot analysis. The format is cell-based.

Assay [6] deals with U-87 MG. In words: Induction of apoptosis in human U87 cells transfected with lentivirus expressing shNC assessed as necrotic cells after 48 hrs by Annexin-V-FITC/PI-staining based flow cytometric analysis (reference value: 0.319%). The format is functional, U-87MG ATCC.
For assay [7], the system named is U-87 MG. In words: Induction of apoptosis in human U87 cells assessed as necrotic cells after 48 hrs by Annexin-V-FITC/PI-staining based flow cytometric analysis (reference value: 0.1%). Type of assay: functional, U-87MG ATCC.
For a further assay, the system named is NIH3T3. In words: Cytotoxicity against mouse 3T3 cells assessed as reduction in cell viability after 72 hrs by MTT assay. The format is cell-based. The following applies: NIH3T3, 72 h.
Assay [8] concerns U-87 MG. The assay is described as follows: Induction of apoptosis in human U87 cells transfected with lentivirus expressing shNC assessed as late apoptotic cells after 48 hrs by Annexin-V-FITC/PI-staining based flow cytometric analysis (reference value: 0.608%). Type of assay: functional, U-87MG ATCC.
Assay [9] concerns the target T1, Pyruvate kinase PKM. The assay is described as follows: Activation of PKM2 in human U87 cells assessed as inhibition of STAT3 phosphorylation at 1 to 2 uM after 24 hrs by Western blot analysis. To be noted: U-87MG ATCC. Type of assay: cell-based.
The target in assay [10] is T1, Pyruvate kinase PKM. The assay is described as follows: Activation of PKM2 in human U118MG cells assessed as inhibition of STAT3 protein expression at 2 uM after 48 hrs by Western blot analysis. Type of assay: cell-based.
The subject of assay [11] is U-118-MG. The assay is described as follows: Antimetastatic activity against human U118MG cells assessed as reduction in cell invasion at 2 uM after 24 hrs by crystal violet staining based transwell assay. The format is functional.

We go through one compound from ChEMBL document CHEMBL4376892, “Identification of Parthenolide Dimers as Activators of Pyruvate Kinase M2 in Xenografts of Glioblastoma Multiforme in Vivo” (J Med Chem, 2020).

Each structure is given as a SMILES string. Activity calls are given as the source filed them. The calls are words filed in the database; no cut-off is given here.

T1 sequence (P14618 2-531 limits assumed): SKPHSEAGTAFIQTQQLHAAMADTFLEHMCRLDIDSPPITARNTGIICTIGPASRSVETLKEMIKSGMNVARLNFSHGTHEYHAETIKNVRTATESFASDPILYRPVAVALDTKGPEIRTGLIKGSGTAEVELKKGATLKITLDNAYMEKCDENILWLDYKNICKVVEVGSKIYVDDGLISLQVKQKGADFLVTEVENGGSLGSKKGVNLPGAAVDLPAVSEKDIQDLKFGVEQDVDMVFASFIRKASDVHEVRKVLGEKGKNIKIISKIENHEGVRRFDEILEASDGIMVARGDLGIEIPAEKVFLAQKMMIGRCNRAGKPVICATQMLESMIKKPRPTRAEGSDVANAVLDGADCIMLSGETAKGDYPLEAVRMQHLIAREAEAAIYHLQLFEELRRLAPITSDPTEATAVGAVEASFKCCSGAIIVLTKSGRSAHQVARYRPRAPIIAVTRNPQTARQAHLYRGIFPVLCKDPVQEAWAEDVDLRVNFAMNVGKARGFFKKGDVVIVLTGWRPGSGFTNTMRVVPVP

In the case of `C=C1C(=O)O[C@H]2[C@H]1CC/C(C(=O)OCCOCCOC(=O)/C1=C/CC[C@@]3(C)O[C@H]3[C@H]3OC(=O)C(=C)[C@@H]3CC1)=C\CC[C@@]1(C)O[C@@H]21`, the result in the assay with U-118-MG [1], at Pyruvate kinase PKM [3], at Pyruvate kinase PKM [9], on Pyruvate kinase PKM [10] and in the assay on U-118-MG [11] was Active. Also, the Activity with U-118-MG [2] is recorded as 5.78%; in the assay on U-118-MG [4] it was 1.32%; in the assay on U-87 MG [6], 1.24%; in the assay on U-87 MG [7], 0.256%; with U-87 MG [8], 3.62%. The IC50 – broadly, the point on the concentration scale where inhibition reaches its midpoint – in the assay with HepG2 was determined as 10.2 µM; in the assay with NIH3T3, 7.93 µM. Besides, the outcome (in the assay with U-87MG ATCC; in assay [5]) was inactive.
